From US20180042874A1, “METHOD FOR TREATING OSTEOPOROSIS” (China Medical University, priority 2016, published 2018)

Tests used:
Format in all cases: cell-based, mouse
p38 = assay: Western blot of MAPK pathway, phosphorylated p38; details: 10 μg/ml co-treated with 100 ng/ml RANKL, 0-60 minutes
Protocol: (§1) The effect of the compound of formula I on the protein expression of osteoclast MAPKs pathways induced by receptor activator of nuclear factor κB ligand was studied, experiments were performed by using the Western blot method; RAW 264.7 cells were rinsed in ice-cold PBS, cell lysis buffer was added, the components of the buffer solution included: 10 mM 4-(2-hydroxyethyl)-1-piperazineethanesulfonic acid (HEPES), 1.5 mM MgCl2, 0.5 mM dithiothreitol (DTT), 0.5 μg/ml leupeptin and 6.4% Nonidet P-40, reacted on ice for 15 minutes. The cells were scraped off with a spatula, collected into a 1.5 ml centrifuge tube, the cells were thoroughly broken by using a shaker; centrifuged at 12,000 rpm, 4° C. for 10 minutes; supernatant was added into a new 1.5 ml centrifuge tube; boiled with IX sodiumdodecyl sulfate (SDS) sample buffer, followed by electrophoresis using 10 to 12% SDS-PAGE. […] The transfer membrane was rinsed again and the membrane loaded with chemical luminescence reagent ECL was allowed to react with a photosensitive sheet in a darkroom for a suitable period of time, the photosensitive sheet then reacted with the developer. After the photosensitive sheet was exposed to light a band-shaped antibody-binding proteins was observed, quantified by the density of the bands. […]

NF-κB p65 = assay: Western blot of NF-κB p65; details: 10 μg/ml co-treated with 100 ng/ml RANKL, 48 hours
Protocol: as §1

[1] = test system: osteolytic activity of osteoclast cells induced by receptor activator of nuclear factor κB ligand; assay: Osteolytic activity of osteoclasts on corning osteo assay surface plate; details: 10 μg/ml co-treated with 100 ng/ml RANKL, 12 days
Excerpt: Effect of the compound of formula I on receptor activator of nuclear factor κB ligand-induced osteocytic activity of the osteoclast cells Osteoclast is a multinuclear cell, which differentiates because of the stimulation of macrophage colony stimulating factor and receptor activator of nuclear factor κB ligand, after differentiation the folds on the edge of the osteoclast form a resorption groove on the cell membrane and the bone surface is […]. In this space, the […] secretes some enzymes and acids. These acids activate the enzymes to initiate osteolysis of bone mineral matrix. […]
In order to confirm the effect of the compound of formula I on the bone resorption capability of differentiated osteoclasts, RAW 264.7 cells were cultured in a 24-well plate (osteo assay plate, 24 well; corning incorporated) containing artificial bone material, the cell number of each well was 2×10^3 cell/ml. […] The number of grooves per each well was counted under a microscope 40× and further photographed for observation.

NFATc2 = assay: Western blot of MAPK downstream protein NFATc2; details: 10 μg/ml co-treated with 100 ng/ml RANKL, 48 hours
Protocol: as §1

`CNC(=O)N[C@]1(C)CCC[C@@]2(C)C3CC[C@@]4(C)C[C@]3(CCC21)CC4=O` (single isomer, unassigned; ent-16) [compound of formula I, ent-16-oxobeyeran-19-N-methylureido] was tested. Which “expression of phosphorylated p38” value (p38) did it give?
The value was “decreased”.

What about the “NF-κB p65 protein expression” value (NF-κB p65) of the same compound?
Its value is “protein expression was reduced”.

And the “eroded area of the artificial bone material” value [1]?
The value was “substantially reduced”.

And the “osteolytic activity of osteoclast cells” value [1]?
Its value is “inhibited”.

What about the NFATc2 protein expression (NFATc2) of the same compound?
Its NFATc2 protein expression is “significantly reduced”.
